# Experimental data as given in US7452997B2 (priority 2004, dated 2008).
# Where two headings read alike, the source gives them in different places.
# What was measured:
# human CB1 receptor = molecular target: T1, human CB1 receptor (Homo sapiens, UniProt P21554); test: biochemical; format: binding
# T1 construct: expressed in transfected cells; host or cells: SK-N-MC cells, stably transfected with pcDNA3 CB-1 (human); semi-purified membrane pellet
# Description: (§1) Binding Assay for CB1 or CB2 Agonists or Inverse Agonists
# (§2) The human CB1 and CB2 receptors were stably expressed in SK-N-MC cells transfected with pcDNA3 CB-1 (human) or pcDNA3 CB-2 (human). The cells were grown in T-180 cell culture flasks under standard cell culture conditions at 37° C. in a 5% CO2 atmosphere. The cells were harvested by trysinization and homogenized in a homogenization buffer (10 mM Tris, 0.2 mM MgCl2, 5 mM KCl, with protease inhibitors aprotinin, leupeptin, pepstatin A and bacitracin) and centrifuged (2000 g). The supernatant was then centrifuged in 2M sucrose (31,300 g) to produce a semi-purified membrane pellet. The pellet was resuspended in homogenization and store at −80° C.
# On the day of the assay, the pellet was thawed on ice and diluted in assay buffer (50 mM Tris-HCl, 5 mM MgCl2, 2.5 mM EDTA, 0.5 mg/mL fatty acid free bovine serum albumin, pH 7.5). […] The plate was covered and incubated for 90 minutes at 30° C. The contents were then aspirated onto a Packard […] GF/C filter bottom plate prewet with 0.5% polyethyleneimine. The wells of the polypropylene plate were rinsed and aspirated seven times with a 0.9% saline-0.5% TWEEN 20 solution. The […] plate was dried, a scintillation cocktail was added to each well and the counts representing binding were quantitated in a TOPCOUNT scintillation counter.
# (§3) The IC50 binding values for compounds tested were calculated by linear regression and were obtained from studies in which varying compound concentrations were used.
# human CB2 receptor = human CB2 receptor (Homo sapiens, UniProt P34972); test: Binding assay, cannabinoid CB2 receptor ([3H]-CP-55,940 displacement); details: SK-N-MC cell membranes, radioligand CP-55,940 0.2 nM
# Chain of human CB2 receptor (P34972 whole entry): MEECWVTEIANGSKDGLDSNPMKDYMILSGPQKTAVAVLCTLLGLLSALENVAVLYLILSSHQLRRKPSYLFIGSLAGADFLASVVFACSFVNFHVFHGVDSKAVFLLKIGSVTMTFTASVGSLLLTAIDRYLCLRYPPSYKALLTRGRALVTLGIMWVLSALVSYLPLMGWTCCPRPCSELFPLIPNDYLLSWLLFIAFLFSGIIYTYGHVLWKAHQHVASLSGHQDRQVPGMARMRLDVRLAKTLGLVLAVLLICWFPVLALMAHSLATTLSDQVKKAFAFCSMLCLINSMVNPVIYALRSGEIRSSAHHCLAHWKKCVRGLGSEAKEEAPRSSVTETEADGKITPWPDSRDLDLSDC
# Description: as §1, §2
# On the day of the assay, the pellet was thawed on ice and diluted in assay buffer (50 mM Tris-HCl, 5 mM MgCl2, 2.5 mM EDTA, 0.5 mg/mL fatty acid free bovine serum albumin, pH 7.5). The diluted membrane was added with buffer, test compound or standard and the radioligand [H]^3+-CP-55,940_(0.2 nM) to the wells of a 96-well polypropylene plate. Non-specific binding was measured in wells containing 10 uM WIN 55,212. The plate was covered and incubated for 90 minutes at 30° C. The contents were then aspirated onto a Packard UNIFILTER GF/C filter bottom plate prewet with 0.5% polyethyleneimine. The wells of the polypropylene plate were rinsed and aspirated seven times with a 0.9% saline-0.5% TWEEN 20 solution. The UNIFILTER plate was dried, a scintillation cocktail was added to each well and the counts representing binding were quantitated in a TOPCOUNT scintillation counter.
# as §3
# [1] = Cannabinoid CB2 Receptor Binding IC50, human CB2 receptor
# [2] = human CB2 receptor, read-out: Cannabinoid CB2 Receptor Binding IC50
# T1 sequence (P21554 whole entry): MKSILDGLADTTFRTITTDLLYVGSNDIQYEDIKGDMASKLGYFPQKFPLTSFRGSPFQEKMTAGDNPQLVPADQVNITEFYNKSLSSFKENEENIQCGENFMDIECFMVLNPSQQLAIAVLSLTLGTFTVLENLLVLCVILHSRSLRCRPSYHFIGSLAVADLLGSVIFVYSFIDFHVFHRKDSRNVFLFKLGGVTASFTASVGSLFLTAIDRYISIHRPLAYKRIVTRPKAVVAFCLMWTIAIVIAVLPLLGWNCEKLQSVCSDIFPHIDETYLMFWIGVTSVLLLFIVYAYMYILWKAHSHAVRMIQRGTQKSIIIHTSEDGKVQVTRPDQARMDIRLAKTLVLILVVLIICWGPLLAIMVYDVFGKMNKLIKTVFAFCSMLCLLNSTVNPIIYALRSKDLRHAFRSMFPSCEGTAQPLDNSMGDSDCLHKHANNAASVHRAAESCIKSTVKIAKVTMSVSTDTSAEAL
SMILES,IC50 (human CB1 receptor) [nM],IC50 (human CB2 receptor; [1]) [nM],IC50 (human CB2 receptor; [2]) [nM]
CC1(C)C2CCC1(C)C(NC(=O)c1nn(-c3ccc(F)cc3)c3c1CCCC3)C2 (centres unmarked) [compound 21],44,11,
CC(NC(=O)Nc1nn(C2CCCCC2)c2c1CCCC2)C1CCCCC1 (centres unmarked) [compound 334],12500,980,
CCOC(=O)C1CC=CCC1NC(=O)c1nn(C2CCCCC2)c2c1CCCC2 (centres unmarked) [compound 301],24,33,
CCOC(=O)[C@H]1C2CCC(C2)[C@H]1NC(=O)c1nn(C2CCCCC2)c2c1CCCC2OC (some centres unmarked) [compound 282],11800,3800,
CC(C)(C)C1CCc2c(c(C(=O)NC3C4(C)CCC(C4)C3(C)C)nn2C2CCCCC2)C1 (centres unmarked) [compound 99],960,250,
CC12CCC(C1)C(C)(C)C2NC(=O)c1nn(-c2ccccc2F)c2c1CCCC2 (centres unmarked) [compound 16],185,5.4,
CC(NC(=O)c1nn(C2CCCCC2)c2c1CCCC2O)C12CC3CC(CC(C3)C1)C2 (centres unmarked) [compound 163],4770,210,
O=C(NC12CC3CC(CC(C3)C1)C2)c1c2c(nn1-c1ccc(Cl)cc1Cl)CCCC2 [compound 140],890,3400,
C[C@@H](NC(=O)c1nn(Cc2ccccc2)c2c1CCCC2)c1ccccc1 [compound 199],19,10,
O=C(NC1C2CC3CC(C2)CC1C3)c1nn(C2CCCCC2)c2c1CC(C(=O)OCc1ccccc1)CC2 (centres unmarked) [compound 79],30,10,
O=C(NC1C2CC3CC(C2)CC1C3)c1nn(-c2ccc(Cl)cc2Cl)c2c1CCCC2 (centres unmarked) [compound 131],30,10,
CC(NC(=O)c1nn(Cc2ccccc2)c2c1CCCC2c1ccccc1)C1CCCCC1 (centres unmarked) [compound 267],150,270,
CCOC(=O)[C@@H]1CCCC[C@H]1NC(=O)c1nn(-c2ccc(F)cc2)c2c1CCCC2 [compound 34],136,40.9,
"O=C(NC1C2CC3CC(C2)CC1C3)c1nn(C2CCCCC2)c2c1CC(C(=O)O)CC2 (centres unmarked) [Cpd 223, 3-(adamantan-2-ylcarbamoyl)-1-cyclohexyl-4,5,6,7-tetrahydro-1H-indazole-5-carboxylic acid]",170000,2900,
"CC12CCC(C1)C(C)(C)C2NC(=O)c1nn(C2CCCCC2)c2c1CC(O)CC2 (centres unmarked) [Cpd 93, 1-cyclohexyl-5-hydroxy-4,5,6,7-tetrahydro-1H-indazole-3-carboxylic acid (1,3,3-trimethyl-bicyclo[2.2.1]hept-2-yl)-amide]",1150,20,
CC12CCC(C1)C(C)(C)[C@H]2NC(=O)c1nn(-c2ccc(F)cc2)c2c1CCCC2 (some centres unmarked) [compound 202],115,4.5,
CC12CCC(C1)C(C)(C)C2NC(=O)c1nn(Cc2ccccc2)c2c1CCCC2c1ccccc1 (centres unmarked) [compound 265],96,41,
CC(NC(=O)c1nn(C2CCCCC2)c2c1CCCC2)C1CCC1 (centres unmarked) [compound 247],260,47,
"CC12CCC(C1)C(C)(C)C2NC(=O)CCc1nn(C2CCCCC2)c2c1CCCC2 (centres unmarked) [Cpd 50, 3-(1-cyclohexyl-4,5,6,7-tetrahydro-1H-indazol-3-yl)-N-(1,3,3-trimethyl-bicyclo[2.2.1]hept-2-yl)-propionamide]",255,13,
CCOC(=O)C1CCc2c(c(C(=O)NC(C)C34CC5CC(CC(C5)C3)C4)nn2Cc2ccccc2)C1 (centres unmarked) [compound 148],13,30,
CCOC(=O)[C@@H]1C2C=CC(C2)[C@@H]1NC(=O)c1nn(Cc2ccccc2)c2c1CCCC2 (some centres unmarked) [compound 206],97,14.1,
CCOC(=O)C1CC=CCC1NC(=O)c1nn(C2CCCCC2)c2c1CCCC2OC (centres unmarked) [compound 120],2460,875,
CCOC(=O)[C@H]1C2C=CC(C2)[C@H]1NC(=O)c1c2c(nn1Cc1ccccc1)CCCC2 (some centres unmarked) [compound 275],323,1300,
CCN(C(=O)c1c2c(nn1-c1ccc(OC)cc1)CCCC2)c1ccccc1OC [compound 121],,,6270
O=C(Nc1nn(C2CCCCC2)c2c1CCCC2)c1ccccc1 [compound 186],,,2290
"CC(C)(C)CC(C)(C)NC(=O)C1CCc2c(c(C(=O)NC3C4CC5CC(C4)CC3C5)nn2C2CCCCC2)C1 (centres unmarked) [Cpd 228, 1-cyclohexyl-4,5,6,7-tetrahydro-1H-indazole-3,5-dicarboxylic acid 3-adamantan-2-ylamide 5-[(1,1,3,3-tetramethyl-butyl)-amide]]",,250,

SMILES,IC50 (human CB1 receptor) [nM],IC50 (human CB2 receptor; [1]) [nM],IC50 (human CB2 receptor; [2]) [nM]
CN1C2CCC1CC(NC(=O)c1nn(C3CCCCC3)c3c1CCCC3)C2 (centres unmarked) [compound 46],,9200,
CCOC(=O)c1c(NC(=O)c2nn(C3CCCCC3)c3c2CCCC3)sc2c1CCC2 [compound 56],,20000,
COc1ccc(-n2nc3c(c2C(=O)NCCc2ccc(N)cc2)CCCC3)cc1 [compound 8],,,21200
CCOC(=O)C1CCc2c(c(C(=O)NC34CC5CC(CC(C5)C3)C4)nn2-c2ccccc2)C1 (centres unmarked) [compound 118],,400,
COC(=O)C(Cc1ccc(OCc2ccccc2)cc1)NC(=O)c1c2c(nn1-c1ccc(OC)cc1)CCCC2 (centres unmarked) [compound 4],,,3690
CC(C)(C)C1CCc2c(c(C(=O)NC3C4(C)CCC(C4)C3(C)C)nn2-c2ccccc2)C1 (centres unmarked) [compound 111],,170,
CCOC(=O)C1CCc2c(c(C(=O)NN3CCCCC3)nn2C2CCCCC2)C1 (centres unmarked) [compound 229],,1300,
"O=C(Nc1nn(C2CCCCC2)c2c1CCCC2)NC12CC3CC(CC(C3)C1)C2 [Cpd 182, 1-adamantan-1-yl-3-(1-cyclohexyl-4,5,6,7-tetrahydro-1H-indazol-3-yl)-urea]",,28,
O=C(NC1C2CC3CC(C2)CC1C3)c1nn(Cc2ccccc2)c2c1CC(C(=O)O)CC2 (centres unmarked) [compound 239],,300,
O=C(Nc1nn(Cc2ccccc2)c2c1CCCC2)NC12CC3CC(CC(C3)C1)C2 [compound 337],,80,
O=C(NCC(O)c1ccc(Br)cc1)c1nn(C2CCCCC2)c2c1CCCC2 (centres unmarked) [compound 240],,1700,
CC12CCC(C1)C(C)(C)C2NC(=O)c1nn(C2CCCCC2)c2c1CC(C(N)=O)CC2 (centres unmarked) [compound 170],,300,
C[C@@H](NC(=O)c1nn(-c2ccccc2)c2c1CC(C(C)(C)C)CC2)C1CCCCC1 (some centres unmarked) [compound 114],,530,
"CC(C)(C)OC(=O)NC1CCc2c(c(C(=O)NC3C4(C)CCC(C4)C3(C)C)nn2C2CCCCC2)C1 (centres unmarked) [Cpd 86, [1-cyclohexyl-3-(1,3,3-trimethyl-bicyclo[2.2.1]hept-2-ylcarbamoyl)-4,5,6,7-tetrahydro-1H-indazol-5-yl]-carbamic acid tert-butyl ester]",,275,
O=C(NNC1CCCCCCC1)c1nn(-c2ccc(F)cc2)c2c1CCCC2 [compound 299],,5520,
CC12CCC(C1)C(C)(C)C2NC(=O)c1nn(-c2ccccn2)c2c1CCCC2 (centres unmarked) [compound 160],,3500,
"O=C(Nc1nn(C2CCCCC2)c2c1CCCC2)c1ccc2ccccc2c1 [Cpd 178, naphthalene-2-carboxylic acid (1-cyclohexyl-4,5,6,7-tetrahydro-1H-indazol-3-yl)-amide]",,2900,
COc1ccc(C(=O)CNC(=O)c2nn(C3CCCCC3)c3c2CCCC3)cc1 [Cpd 176],,4000,
O=C(NC1CN2CCC1CC2)c1nn(C2CCCCC2)c2c1CCCC2 (centres unmarked) [compound 225],,,650
CCOC(=O)C1CCc2c(c(C(=O)NC3C4CC5CC(C4)CC3C5)nn2-c2ccccc2)C1 (centres unmarked) [compound 115],,180,
CC(C)(C)C1CCc2c(c(C(=O)NC34CC5CC(CC(C5)C3)C4)nn2-c2ccccc2)C1 (centres unmarked) [compound 113],,770,
O=C(CNC(=O)c1nn(C2CCCCC2)c2c1CCCC2)c1ccccc1 [compound 188],,5100,
"C[C@@H](NC(=O)C=Cc1nn(Cc2ccccc2)c2c1CCCC2)c1ccccc1 [Cpd 306, 3-(1-benzyl-4,5,6,7-tetrahydro-1H-indazol-3-yl)-N-[(1R)-1-phenyl-ethyl]-acrylamide]",,1800,
O=C(NC1C2CCC(C2)C1C(=O)O)c1nn(C2CCCCC2)c2c1CC(C(=O)O)CC2 (centres unmarked) [compound 138],,,11800
C[C@@H](NC(=O)c1nn(C2CCCCC2)c2c1CC(NC(=O)OC(C)(C)C)CC2)C1CCCCC1 (some centres unmarked) [compound 286],,2700,
